Laboratory results taken from patent publication US7122558B2 (priority 2000, dated 2006).
Structures can show the parent of a compound that is named as a salt.

Target: T1, human muscarinic receptors M3 (Homo sapiens, UniProt P20309)
T1 construct: expressed in transfected cells; host or cells: CHO-K1 (chinese hamster ovary-K1), stably transfected; membrane preparations
Test: biochemical
Assay type: binding
Conditions: for inhibition at 0.1 µM: read-out: % INHIBITION concentration: 1.00E−07 M; for inhibition at 0.01 µM: read-out: % INHIBITION concentration: 1.00E−08 M

T1 sequence (P20309 whole entry): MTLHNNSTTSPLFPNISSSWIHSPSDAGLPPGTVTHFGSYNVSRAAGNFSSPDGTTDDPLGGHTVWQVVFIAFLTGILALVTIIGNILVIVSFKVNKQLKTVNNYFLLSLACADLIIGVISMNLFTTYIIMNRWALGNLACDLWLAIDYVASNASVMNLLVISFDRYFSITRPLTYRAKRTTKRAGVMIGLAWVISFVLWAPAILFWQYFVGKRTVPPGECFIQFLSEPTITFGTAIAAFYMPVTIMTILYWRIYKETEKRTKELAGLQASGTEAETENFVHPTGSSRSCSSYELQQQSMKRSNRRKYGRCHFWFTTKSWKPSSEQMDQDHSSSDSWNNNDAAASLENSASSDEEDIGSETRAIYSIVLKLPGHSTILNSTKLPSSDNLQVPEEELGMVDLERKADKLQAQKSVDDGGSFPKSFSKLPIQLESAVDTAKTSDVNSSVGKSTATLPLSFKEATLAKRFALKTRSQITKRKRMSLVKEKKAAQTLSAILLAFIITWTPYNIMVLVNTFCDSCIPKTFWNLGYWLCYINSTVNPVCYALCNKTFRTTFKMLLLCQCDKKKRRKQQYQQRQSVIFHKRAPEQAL

Structure (SMILES)	inhibition at 0.1 µM	inhibition at 0.01 µM
COc1ccc(OCCC[N+]23CCC(CC2)[C@@H](OC(=O)[C@](O)(c2cccs2)C2CCCC2)C3)cc1 [Example 44, (3R)-3-[(2S)-2-Cyclopentyl-2-hydroxy-2-thien-2-ylacetoxy]-1-[3-(4-methoxyphenoxy)propyl]-1-azoniabicyclo[2.2.2]octane trifluoroacetate]	84.6%	44.6%
O=C(O[C@H]1C[N+]2(CCCSc3ccccc3)CCC1CC2)[C@](O)(c1ccccc1)C1CCCC1 [Example 84, (3R)-3-[(2R)-2-Cyclopentyl-2-hydroxy-2-phenylacetoxy]-1-(3-phenylsulfanylpropyl)-1-azoniabicyclo[2.2.2]octane trifluoroacetate]	68.3%	41%
O=C(O[C@H]1C[N+]2(CCCSc3ccccc3)CCC1CC2)[C@](O)(c1cccs1)C1CCCC1 [Example 37, (3R)-3-[(2S)-2-Cyclopentyl-2-hydroxy-2-thien-2-ylacetoxy]-1-(3-phenylsulfanylpropyl)-1-azoniabicyclo[2.2.2]octane trifluoroacetate]	88.1%	72.6%
O=C(O[C@H]1C[N+]2(CCCOc3cccc(O)c3)CCC1CC2)[C@](O)(c1cccs1)C1CCCC1 [Example 31, (3R)-3-[(2S)-2-Cyclopentyl-2-hydroxy-2-thien-2-ylacetoxy]-1-[3-(3-hydroxyphenoxy)propyl]-1-azoniabicyclo[2.2.2]octane trifluoroacetate]	74.3%	54.3%
Cc1ccccc1OCCC[N+]12CCC(CC1)[C@@H](OC(=O)[C@](O)(c1cccs1)C1CCCC1)C2 [Example 33, (3R)-3-[(2S)-2-Cyclopentyl-2-hydroxy-2-thien-2-ylacetoxy]-1-(3-o-tolyloxypropyl)1-azoniabicyclo[2.2.2]octane trifluoroacetate]	72.8%	46.7%
O=C(O[C@H]1C[N+]2(CCOc3ccccc3)CCC1CC2)[C@](O)(c1cccs1)C1CCCC1 [Example 24, (3R)-3-[(2S)-2-Cyclopentyl-2-hydroxy-2-thien-2-ylacetoxy]-1-(2-phenoxyethyl)-1-azoniabicyclo[2.2.2]octane bromide]	78%	56.6%
O=C(O[C@H]1C[N+]2(CCc3ccccc3)CCC1CC2)[C@](O)(c1cccs1)C1CCCCC1 [Example 89, (3R)-3-[(2S)-2-Cyclohexyl-2-hydroxy-2-thien-2-ylacetoxy]-1-phenethyl-1-azoniabicyclo[2.2.2]octane trifluoroacetate]	68.5%	51.3%
O=C(O[C@H]1C[N+]2(CCc3ccccc3)CCC1CC2)[C@](O)(c1ccccc1)C1CCCC1 [Example 83, (3R)-3-[(2R)-2-Cyclopentyl-2-hydroxy-2-phenylacetoxy]-1-phenethyl-1-azoniabicyclo[2.2.2]octane trifluoroacetate]	72.7%	60.3%
O=C(O[C@H]1C[N+]2(CCCc3cccs3)CCC1CC2)[C@@](O)(c1ccco1)C1CCCC1 [Example 61, (3R)-3-[(2S)-2-Cyclopentyl-2-fur-2-yl-2-hydroxyacetoxy]-1-(3-thien-2-ylpropyl)-1-azoniabicyclo[2.2.2]octane trifluoroacetate]	75.1%	39.9%
O=C(O[C@H]1C[N+]2(CCCc3ccccc3)CCC1CC2)[C@](O)(c1cccs1)C1CCCC1 [Example 26, (3R)-3-[(2S)-2-Cyclopentyl-2-hydroxy-2-thien-2-ylacetoxy]-1-(3-phenylpropyl)-1-azoniabicyclo[2.2.2]octane trifluoroacetate]	75.6%	63.8%
O=C(O[C@H]1C[N+]2(CCCOc3ccccc3)CCC1CC2)[C@](O)(c1cccs1)C1CCCC1 [Example 22, (3R)-3-[(2S)-2-Cyclopentyl-2-hydroxy-2-thien-2-ylacetoxy]-1-(3-phenoxypropyl)-1-azoniabicyclo[2.2.2]octane bromide]	81.5%	72%
O=C(O[C@H]1C[N+]2(CCc3ccccc3)CCC1CC2)[C@@](O)(c1cccs1)C1CCCC1 [Example 56, (3R)-3-[(2R)-2-Cyclopentyl-2-hydroxy-2-thien-2-ylacetoxy]-1-phenethyl-1-azoniabicyclo[2.2.2]octane trifluoroacetate]	77.3%	53.8%
CN(CCC[N+]12CCC(CC1)[C@@H](OC(=O)[C@](O)(c1cccs1)C1CCCC1)C2)c1ccccc1 [Example 36, (3R)-3-[(2S)-2-Cyclopentyl-2-hydroxy-2-thien-2-ylacetoxy]-1-[3-(methylphenylamino)propyl]-1-azoniabicyclo[2.2.2]octane trifluoroacetate]	84.2%	42%
O=C(O[C@H]1C[N+]2(CCCc3cccs3)CCC1CC2)[C@](O)(c1cccs1)C1CCCC1 [Example 23, (3R)-3-[(2S)-2-Cyclopentyl-2-hydroxy-2-thien-2-yl-acetoxy]-1-(3-thien-2-ylpropyl)-1-azoniabicyclo[2.2.2]octane trifluoroacetate]	75.6%	63.3%
O=C(O[C@H]1C[N+]2(CCc3ccccc3)CCC1CC2)[C@@](O)(c1ccccc1)C1CCCC1 [Example 86, (3R)-3-[(2S)-2-Cyclopentyl-2-hydroxy-2-phenylacetoxy]-1-phenethyl-1-azoniabicyclo[2.2.2]octane trifluoroacetate]	68.2%	37.2%
O=C(O[C@H]1C[N+]2(CCCOc3ccc4c(c3)OCO4)CCC1CC2)[C@](O)(c1cccs1)C1CCCC1 [Example 46, 1-[3-(Benzo[1,3]dioxol-5-yloxy)propyl]-(3R)-3-[(2S)-2-cyclopentyl-2-hydroxy-2-thien-2-ylacetoxy]-1-azoniabicyclo[2.2.2]octane trifluoroacetate]	87.1%	57.6%
O=C(O[C@H]1C[N+]2(CCCOc3ccc(F)cc3)CCC1CC2)[C@](O)(c1cccs1)C1CCCC1 [Example 28, (3R)-3-[(2S)-2-Cyclopentyl-2-hydroxy-2-thien-2-ylacetoxy]-1-[3-(4-fluorophenoxy)propyl]-1-azoniabicyclo[2.2.2]octane trifluoroacetate]	78.3%	60.6%
O=C(O[C@H]1C[N+]2(CCCc3ccccc3)CCC1CC2)[C@@](O)(c1cccs1)C1CCCC1 [Example 57, (3R)-3-[(2R)-2-Cyclopentyl-2-hydroxy-2-thien-2-ylacetoxy]-1-(3-phenylpropyl)-1-azoniabicyclo[2.2.2]octane trifluoroacetate]	77.4%	47.1%
O=C(O[C@H]1C[N+]2(CCc3ccccc3)CCC1CC2)[C@](O)(c1cccs1)C1CCCC1 [Example 25, (3R)-3-[(2S)-2-Cyclopentyl-2-hydroxy-2-thien-2-ylacetoxy]-1-phenethyl-1-azoniabicyclo[2.2.2]octane trifluoroacetate]	76.1%	62.6%
O=C(O[C@H]1C[N+]2(CCCOc3ccccc3)CCC1CC2)[C@](O)(c1ccccc1)C1CCCC1 [Example 82, (3R)-3-[(2R)-2-Cyclopentyl-2-hydroxy-2-phenylacetoxy]-1-(3-phenoxypropyl)-1-azoniabicyclo[2.2.2]octane trifluoroacetate]	70.6%	55.3%
